Assay results published in paper PMC6130489, “Caffeic acid methyl and ethyl esters exert potential antidiabetic effects on glucose and lipid metabolism in cultured murine insulin-sensitive cells through mechanisms implicating activation of AMPK” (Pharmaceutical Biology, 2017).

Experiments:
[1] = tested on: AMPK; assay: Western immunoblot phospho-AMPK in L6 myotubes; assay type: cell-based, rat; settings: 50 μM, 18 h, phospho-AMPK/β-actin
Procedure: (§1) L6 cells myotubes, H4IIE cells and 3T3-L1 adipocytes were treated with either CAME, CAEE (50 μM each) or vehicle (DMSO) for 18 h. Insulin (100 nM) or aminoimidazole carboxamide ribonucleotide (AICAR; 1 mM) were added to some vehicle-treated wells 30 min prior to the end of the treatment and served as the positives controls. Protein content was assayed by the bicinchoninic acid method (Thermo Scientific Pierce Protein Research, Rockford, IL) standardized to bovine serum albumin. Western immunoblotting was performed as described elsewhere (Eid et al. [2010]). Membranes were incubated overnight with phospho-AMPK, phospho-Akt, GLUT4, GLUT1 and β-actin antibodies (1:1000 dilution, Cell Signalling Technology, Danvers, MA), or with PPAR-γ, SREBP-1 (1:200, Santa Cruze Biotechnology, Santa Cruz, CA), followed by incubation with HRP-coupled secondary antibody (1:10,000) for 1 h. Immunoreactive bands were visualized by enhanced chemiluminescence and quantified by the Scion Image program (Scion Corporation, Frederick, MD). Experiments were repeated on 3 different passages of cells, each passage containing all conditions in parallel.
Figure 1. (A) CAME and CAEE increase ^3H-deoxyglucose uptake in L6 GLUT4myc myotubes. Cells were treated with 50 μM of either CAME, CAEE, or with vehicle (0.1% DMSO) for 18 h. 100 nM insulin served as the positive control and was applied for the last 15 min of the treatment in vehicle-treated cells. Glucose uptake was performed as described in Materials and Methods section. […] Cells were treated as previously described, cell surface GLUT4myc was detected by an enzyme-linked colorimetric assay. […] Results represent the means ± SEM of three independent experiments, and 3-4 cells were analyzed for each condition per experiment. *Indicates a significant (p ≤ 0.05) difference, **(p < 0.01) from the vehicle control group as assessed by ANOVA. […] Data are expressed as (D) phospho-AMPK/β-actin, (E) GLUT4/β-actin and (F) GLUT1/β-actin and are given as mean ± SEM from 3 experiments. *p < 0.05 indicates a significant difference, **(p < 0.01) from the vehicle control group.

[2] = tested on: Akt; assay: Western immunoblot phospho-Akt in L6 myotubes; assay type: cell-based, rat; settings: 50 μM, 18 h
Procedure: (§2) L6 cells myotubes, H4IIE cells and 3T3-L1 adipocytes were treated with either CAME, CAEE (50 μM each) or vehicle (DMSO) for 18 h. Insulin (100 nM) or aminoimidazole carboxamide ribonucleotide (AICAR; 1 mM) were added to some vehicle-treated wells 30 min prior to the end of the treatment and served as the positives controls. Protein content was assayed by the bicinchoninic acid method (Thermo Scientific Pierce Protein Research, Rockford, IL) standardized to bovine serum albumin. Western immunoblotting was performed as described elsewhere (Eid et al. [2010]). […] Immunoreactive bands were visualized by enhanced chemiluminescence and quantified by the Scion Image program (Scion Corporation, Frederick, MD). […]
Figure 1. […] Cells were treated as previously described, cell surface GLUT4myc was detected by an enzyme-linked colorimetric assay. […] Results represent the means ± SEM of three independent experiments, and 3-4 cells were analyzed for each condition per experiment. *Indicates a significant (p ≤ 0.05) difference, **(p < 0.01) from the vehicle control group as assessed by ANOVA. […] Data are expressed as (D) phospho-AMPK/β-actin, (E) GLUT4/β-actin and (F) GLUT1/β-actin and are given as mean ± SEM from 3 experiments. *p < 0.05 indicates a significant difference, **(p < 0.01) from the vehicle control group.

[3] = tested on: AMPK; assay: Western immunoblot phospho-AMPK in H4IIE cells; assay type: cell-based, rat; settings: 50 μM, 18 h, AICAR 1 mM 30 min as positive control
Procedure: as §2
(§3) Figure 2. […] (A) H4IIE hepatocytes were treated for 16 h with several concentrations (12.5, 25, 50 and100 μM) of either CAME or CAEE and G6Pase activity was determined colorimetrically using a commercial glucose assay kit as described under Materials and Methods. […] (D) Data are expressed as phospho-AMPK/pan-AMPK and are given as mean ± SEM from 3 experiments. *p < 0.05 indicates a significant difference, **(p < 0.01), ***(p < 0.001) from the vehicle control group.

[4] = tested on: Akt; assay: Western immunoblot phospho-Akt in H4IIE cells; assay type: cell-based, rat; settings: 50 μM, 18 h
Procedure: as §2, §3

[5] = tested on: C/EBP-β; assay: Western immunoblot C/EBP-β in 3T3-L1 adipocytes; assay type: cell-based, mouse; settings: 100 μM (Figure 4 legend)
Procedure: as §1, with “Insulin” for “L6 cells myotubes, H4IIE cells and 3T3-L1 adipocytes were treated with either CAME, CAEE (50 μM each) or vehicle (DMSO) for 18 h. Insulin”
Figure 4. CAME and CAEE inhibit C/EBP-β and PPAR-γ protein expression through mechanisms implicating AMPK pathway. Shown are representative blots of 3T3-adipocytes treated with the maximum nontoxic concentration (100 μM) of either CAME or CAEE. […] Data are expressed as C/EBP-β/β-actin (D), PPAR-γ/β-actin (E), phospho-Akt/pan-Akt (F) and phospho-AMPK/pan-AMPK (G). […]

[6] = tested on: C2C12 cells; design: method as in Eid et al. [2010]; settings: cultured C2C12 cells; ref Eid et al. [2010]; cited from earlier work

SMILES | AMPK phosphorylation, fold increase over DMSO [1] [fold] | effect on Akt (phospho-Akt) [2] | AMPK phosphorylation [3] | phosphorylation of Akt [4] | protein level of C/EBP-β [5] | toxicity [6]
CCOC(=O)/C=C/c1ccc(O)c(O)c1 [CAEE, caffeic acid ethyl ester] | 11 | no effect | increase in AMPK phosphorylation to the same extent as the positive control AICAR | did not increase | significantly reduced | no or little toxicity
COC(=O)/C=C/c1ccc(O)c(O)c1 [CAME, CA methyl ester] | 13 | no effect | increase in AMPK phosphorylation to the same extent as the positive control AICAR | did not increase | significantly reduced | no or little toxicity
